Our source for the IC50 values is patent publication US20220169639A1 (priority 2018, published 2022).

The subject of test [1] is HBeAg (surrogate marker for cccDNA) in HepDES19 cells. The test is described as follows: Engineered HepDES19 primary screen assay (HBeAg ELISA). The test is classed as cell-based, HBV. Particulars: Hepatitis B virus, 120 h, HBeAg in culture supernatant, 5 days incubation, read-out: IC50 (HepDES19 primary screen assay, inhibition of extracellular HBeAg level). In a few lines:
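HepDES19 cells pre-induced by Tet withdrawal for 8 days, frozen, then seeded and dosed after 24 h with half-log compound dilutions (1% DMSO final). After 5 days at 37 °C, HBeAg measured by ELISA and viability by CCK-8; IC50 from 4-parameter logistic fit.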
(In an ELISA, binding on a coated surface is turned into a signal by an enzyme label.)

Test [2] has as its system HBV (HBsAg) in HBV-infected PHH. The test is described as follows: Cryopreserved primary human hepatocytes (PHH) HBV infection assay, extracellular HBsAg (CLIA). It is filed as cell-based. The following applies: Hepatitis B virus, Hepatocyte, 216 h, read-out: HBsAg IC50. On the procedure: This assay is used to confirm the anti-HBV effect of the compounds in HBV PHH infection assay. Cryopreserved PHH (BioreclamationIVT, Lot YJM) was thawed at 37° C. and gently transferred into pre-warmed InVitroGRO HT medium (BioreclamationIVT, Cat. S03317). The mixture was centrifuged at 70 relative centrifugal force (RCF) for 3 minutes at RT, and the supernatant was discarded. Pre-warmed InVitroGRO CP medium (BioreclamationIVT, Cat #S03316) was added to the cell pellet to gently re-suspend cells. The cells were seeded at the density of 5.8×10^4 cells per well to collagen I coated 96-well plate (Gibco, Cat. A1142803) with the InVitroGRO CP medium. All plates were incubated at 37° C. with 5% CO2 and 85% humidity.
At 20 hours after plating, the medium was changed to PHH culture medium (Dulbecco's Modified Eagle Medium (DMEM)/F12 (1:1) (Gibco, Cat. 11320-033), 10% fetal bovine serum (Gibco Cat. 10099141), 100 U/mL penicillin, 100 μg/mL streptomycin (Gibco, Cat. 151401-122), 5 ng/mL human epidermal growth factor (Invitrogen Cat. PHG0311L), 20 ng/mL dexamethasone (Sigma, Cat. D4902) and 250 ng/mL human recombinant insulin (Gibco, Cat. 12585-014)). And the cells were incubated at 37° C. with 5% CO2 and 85% humidity for 4 hours. The medium was then changed to pre-warmed PHH culture medium containing 4% polyethylene glycol (PEG) MW8000 (Sigma, Cat. P1458-50ML) and 1% DMSO (Sigma, Cat. D2650). 5.8×10^6 genomic equivalents of HBV were added into the medium.
At 24 hours post-infection, the cells were gently washed with PBS and refreshed with PHH culture medium supplemented with 1% DMSO, and 0.25 mg/mL Matrix gel (Corning, Cat. 356237) at 200 μL per well. All plates were immediately placed in at 37° C. CO2 incubator. 24 hours later, serial dilutions of compounds made with DMSO were further diluted with the same culture medium (PHH culture medium supplemented with 1% DMSO and 0.25 mg/mL Matrix gel as described above) before they were added to the cells to reach desired final compound concentrations and 1% DMSO concentration. The medium containing the compounds were refreshed every three days.
At 9 days post-compound treatment, extracellular HBsAg level were measured with Chemiluminescence Immuno Assay (CLIA) kit (Autobio, HBsAg Quantitative CLIA). Extracellular HBV DNA was extracted by MagNA Pure 96 system (Roche) and then determined
HBsAg IC50 and HBV DNA IC50 values were derived from the dose-response curve using 4 parameter logistic curve fit method. The compounds of formula (I) have HBsAg IC50<20 μM, particularly <1 μM; and HBV DNA IC50<50 μM. Results of Cryopreserved PHH assay are given in TableBIO2.

For `CN(C1CCN(CCOc2cc(Br)ccc2-c2cc(=O)c3cccc(Cl)c3o2)C1)S(C)(=O)=O` (stereo not drawn) [Example 076, N-[1-[2-[5-bromo-2-(8-chloro-4-oxo-chromen-2-yl)phenoxy]ethyl]pyrrolidin-3-yl]-N-methyl-methanesulfonamide], the 50% inhibitory concentration (IC50) in test [1] is 1.64 µM; in test [2], 7.95 µM.
Regarding `C[S+]([O-])C1CCN(CCOc2cc(C(F)(F)F)ccc2-c2cc(=O)c3cccc(Cl)c3o2)CC1` (stereo not drawn) [Example 093, 8-chloro-2-[2-[2-(4-methylsulfinyl-1-piperidyl)ethoxy]-4-(trifluoromethyl)phenyl]chromen-4-one], the IC50 in test [1] was 5.98 µM; in test [2], 6.13 µM.
Turning to `NS(=O)(=O)NCCCOc1cc(C(F)(F)F)ccc1-c1cc(=O)c2cccc(Cl)c2o1` [Example 160, 8-chloro-4-oxo-2-[2-[3-(sulfamoylamino)propoxy]-4-(trifluoromethyl)phenyl]chromene], the IC50 in test [1] is 2.43 µM; in test [2] it was 10 µM.
The corresponding values for `CS(=O)(=O)NC(=O)[C@H]1CCN(CCCOc2cc(C(F)(F)F)ccc2-c2cc(=O)c3cccc(Cl)c3o2)C1` [Example 066, (3S)-1-[3-[2-(8-chloro-4-oxo-chromen-2-yl)-5-(trifluoromethyl)phenoxy]propyl]-N-methylsulfonyl-pyrrolidine-3-carboxamide] are 2.79 µM and 9.03 µM.
In the same order, the values of `CCOc1ccc(-c2cc(=O)c3cccc(Cl)c3o2)c(OCCCN2CC[C@H](C(=O)O)C2)c1` [Example 015, (3S)-1-[3-[2-(8-chloro-4-oxo-chromen-2-yl)-5-ethoxy-phenoxy]propyl]pyrrolidine-3-carboxylic acid] are 7.85 µM and 9.75 µM.
As for `O=C(O)C(=O)NC1CC(Oc2cc(C(F)(F)F)ccc2-c2cc(=O)c3cccc(Cl)c3o2)C1` (stereo not drawn) [Example 133], the half-inhibitory concentration (IC50) in test [1] was found to be 4.57 µM; in test [2] it was 2.8 µM.
Regarding `O=C(O)[C@H]1CCN(CCOc2cc(Br)ccc2-c2cc(=O)c3c(C(F)(F)F)ccc(Cl)c3o2)C1` [Example 042, (3S)-1-[2-[5-bromo-2-[8-chloro-4-oxo-5-(trifluoromethyl)chromen-2-yl]phenoxy]ethyl]pyrrolidine-3-carboxylic acid], the values for the IC50 in test [1] and in test [2] were 0.05 µM and 7.3 µM, respectively.
In the same order, the values of `O=C(O)C1CN(CCOc2cc(Br)ccc2-c2cc(=O)c3cccc(Cl)c3o2)CCO1` (stereo not drawn) [Example 023, 4-[2-[5-bromo-2-(8-chloro-4-oxo-chromen-2-yl)phenoxy]ethyl]morpholine-2-carboxylic acid] are 0.13 µM and 4.95 µM.
As to `O=C(O)[C@@H]1CCN(CCCOc2cc(C(F)(F)F)ccc2-c2cc(=O)c3cccc(Cl)c3o2)C1` [Example 013, (3R)-1-[3-[2-(8-chloro-4-oxo-chromen-2-yl)-5-(trifluoromethyl)phenoxy]propyl]pyrrolidine-3-carboxylic acid], the values for the IC50 in test [1] and in test [2] were 4.23 µM and 7.35 µM, respectively.
On to `O=C(O)CNCCCOc1cc(C(F)(F)F)ccc1-c1cc(=O)c2cccc(Cl)c2o1` [Example 125, 2-[3-[2-(8-chloro-4-oxo-chromen-2-yl)-5-(trifluoromethyl)phenoxy]propylamino]acetic acid], for which the IC50 in test [1] came to 2.03 µM; in test [2] it was 3.19 µM.
For `COc1cc(-c2cc(=O)c3cccc(Cl)c3o2)c(OCCCN2CC[C@H](C(=O)O)C2)cc1Br` [Example 017, (3S)-1-[3-[5-bromo-2-(8-chloro-4-oxo-chromen-2-yl)-4-methoxy-phenoxy]propyl]pyrrolidine-3-carboxylic acid], the IC50 was 0.34 µM in test [1] and 3.42 µM in test [2].
Regarding `O=C(O)C(=O)N1CC[C@H](Oc2cc(C(F)(F)F)ccc2-c2cc(=O)c3cccc(Cl)c3o2)C1` [Example 126, 2-oxo-2-[(3S)-3-[2-(8-chloro-4-oxo-chromen-2-yl)-5-(trifluoromethyl)phenoxy]pyrrolidin-1-yl]acetic acid], the half-maximal inhibitory concentration (IC50) in test [1] turned out to be 0.91 µM; in test [2], 4.21 µM.

What is called IC50 is the concentration that gives 50% inhibition.
